Experimental data taken from patent US20170342021A1, “RAS-INHIBITING INDENYL ACETAMIDE COMPOUNDS, COMPOSITIONS, AND USES” (ADT Pharmaceuticals, Inc., priority 2014, published 2017).

Experiments:
[1] = tested on: SW-480 colon tumor cells expressing mutant Ras, compared to HT-29 expressing wild-type Ras; assay: Ras selectivity by growth inhibition, HT-29 versus SW-480; format: cell-based, human; details: ratio of IC50 in HT-29 to IC50 in SW-480; 5000 cells/well, 96-well plates, Cell Titer Glo
Method: (§1) This example illustrates cell growth assays that can be employed in the present invention. Cells can include A-549, HT-29, MDA-MB-231, Colo-205, Caco2, HCT-116, SW-480, and DLD-1 human cancer cells obtained from the American Type Culture Collection (ATCC). Human tumor cells are cultured using standard methods in RPMI-1640 growth medium supplemented with 5% fetal bovine serum (FBS). Normal rat kidney (NRK) and Ki-Ras transformed NRK cells (K-NRK) are obtained from ATCC, and were cultured according to supplier recommendations. CellTiter-Glo ATP cell growth assay reagents are obtained from Promega and used according to the manufacturer's protocol. Inhibitors of EGFR, Raf, and MEK are obtained from Selleck Chemicals. Cells are plated at a density of 5,000 cells per well in 96-well microplates or 1,250 cells per well in 384-well plates, and allowed to attach for at least 4 h. Test compounds are dissolved in dimethyl sulfoxide (DMSO), and this working stock is further diluted in growth medium for addition to cell cultures. Serial dilutions of the test compound are prepared in growth medium containing an equal amount of DMSO not exceeding 0.2% final concentration. Each compound concentration is tested in at least 3 separate samples per cell line. At the end of a 3-day treatment period, growth inhibition is analyzed using a bioluminescent assay of ATP concentration (Promega CellTiter-Glo) according to the manufacturer's protocol. The resulting luminescence is measured using the luminescence cartridge of the Molecular Devices Spectramax Paradigm microplate reader. The relative growth inhibition for each sample is determined by comparison with the values obtained for vehicle treated control samples. Growth inhibition values are plotted with the GraphPad Prism5 software using the 4-parameter logistic fit to obtain IC50 values, which corresponds to the growth inhibitory potency of the compound.
(§2) This example illustrates the use of well-established human colon tumor cell lines with widely divergent Ras activation status to determine selectivity values for exemplary compounds of the present invention. Cell lines thus employed in this example were HCT-116, a highly Ras-driven line expressing mutant Ras, SW-480, another strongly Ras-driven line expressing mutant Ras, and HT-29, a non-Ras-driven line expressing wild-type, non-mutated Ras. Cells were plated at 5000 cells/well in 96-well plates, and viable cell numbers were measured using the Cell Titer Glo ATP luminescence assay (Promega). FIGS. 5A-5F show results of these studies for exemplary compounds 054, 058, 057, 055, and 056, respectively. The calculated HT-29/HCT-116 selectivity values for the first five of the aforementioned compounds were 14, 13, 18, 11 and 5, respectively. The calculated HT-29/SW-480 selectivity values for the aforementioned compounds were 16, 16, 19, 13 and 5, respectively.

[2] = tested on: HCT-116 colon tumor cells expressing mutant Ras, compared to HT-29 expressing wild-type Ras; assay: Ras selectivity by growth inhibition, HT-29 versus HCT-116; format: cell-based, human; details: ratio of IC50 in HT-29 to IC50 in HCT-116; 5000 cells/well, 96-well plates, Cell Titer Glo
Method: as §1, §2

DLD-1 = assay: CellTiter-Glo growth inhibition, DLD-1; format: cell-based, human; details: ten-fold serial dilutions, ras-mutant line
Method: as §1, with “Cells can include A-549, HT-29, MDA-MB-231, Colo-205, Caco2, HCT-116, SW-480, and DLD-1 human cancer cells obtained from the American Type Culture Collection (ATCC). Human tumor cells are cultured using standard methods in RPMI-1640 growth medium supplemented with 5% fetal bovine serum (FBS).” left out
(§3) Cells were seeded in 384-well plates and allowed to attach. Ten-fold serial dilutions of compounds were tested. Each compound concentration was tested in at least 3 separate samples per cell line.

COLO-205 = assay: CellTiter-Glo growth inhibition, COLO-205; format: cell-based, human; details: ten-fold serial dilutions, wild type Ras line, lowest level of active Ras
Method: as §1, with “Cells can include A-549, HT-29, MDA-MB-231, Colo-205, Caco2, HCT-116, SW-480, and DLD-1 human cancer cells obtained from the American Type Culture Collection (ATCC). Human tumor cells are cultured using standard methods in RPMI-1640 growth medium supplemented with 5% fetal bovine serum (FBS).” left out
as §3

SW-480 = assay: CellTiter-Glo growth inhibition, SW-480; format: cell-based, human; details: ten-fold serial dilutions, ras-mutant line
Method: as §1, with “Cells can include A-549, HT-29, MDA-MB-231, Colo-205, Caco2, HCT-116, SW-480, and DLD-1 human cancer cells obtained from the American Type Culture Collection (ATCC). Human tumor cells are cultured using standard methods in RPMI-1640 growth medium supplemented with 5% fetal bovine serum (FBS).” left out
as §3

HCT-116 = assay: CellTiter-Glo growth inhibition, HCT-116; format: cell-based, human; details: ten-fold serial dilutions, ras-mutant line
Method: as §1, with “Cells can include A-549, HT-29, MDA-MB-231, Colo-205, Caco2, HCT-116, SW-480, and DLD-1 human cancer cells obtained from the American Type Culture Collection (ATCC). Human tumor cells are cultured using standard methods in RPMI-1640 growth medium supplemented with 5% fetal bovine serum (FBS).” left out
as §3

Caco-2 = assay: CellTiter-Glo growth inhibition, Caco-2; format: cell-based, human; details: ten-fold serial dilutions, wild type Ras line
Method: as §1, with “Cells can include A-549, HT-29, MDA-MB-231, Colo-205, Caco2, HCT-116, SW-480, and DLD-1 human cancer cells obtained from the American Type Culture Collection (ATCC). Human tumor cells are cultured using standard methods in RPMI-1640 growth medium supplemented with 5% fetal bovine serum (FBS).” left out
as §3

HT-29 = assay: CellTiter-Glo growth inhibition, HT-29; format: cell-based, human; details: ten-fold serial dilutions, wild type Ras line
Method: as §1, with “Cells can include A-549, HT-29, MDA-MB-231, Colo-205, Caco2, HCT-116, SW-480, and DLD-1 human cancer cells obtained from the American Type Culture Collection (ATCC). Human tumor cells are cultured using standard methods in RPMI-1640 growth medium supplemented with 5% fetal bovine serum (FBS).” left out
as §3

[3] = tested on: panel of human colorectal cancer cell lines; assay: Growth inhibition by known Ras pathway inhibitors across the cell line panel; format: cell-based; details: comparison of potency across cell lines with differing Ras activation
Method: This example illustrates cell growth assays that can be employed in the present invention. Cells can include A-549, HT-29, MDA-MB-231, Colo-205, Caco2, HCT-116, SW-480, and DLD-1 human cancer cells obtained from the American Type Culture Collection (ATCC). Human tumor cells are cultured using standard methods in RPMI-1640 growth medium supplemented with 5% fetal bovine serum (FBS). Normal rat kidney (NRK) and Ki-Ras transformed NRK cells (K-NRK) are obtained from ATCC, and were cultured according to supplier recommendations. CellTiter-Glo ATP cell growth assay reagents are obtained from Promega and used according to the manufacturer's protocol. […] At the end of a 3-day treatment period, growth inhibition is analyzed using a bioluminescent assay of ATP concentration (Promega CellTiter-Glo) according to the manufacturer's protocol. The resulting luminescence is measured using the luminescence cartridge of the Molecular Devices Spectramax Paradigm microplate reader. The relative growth inhibition for each sample is determined by comparison with the values obtained for vehicle treated control samples. […]
This example illustrates the levels of Ras activation in different colorectal cancer cells. […] The ratio of the intensity of the Ras to GAPDH bands was expressed as relative Ras activation, which is presented above each lane in FIG. 4. […]

[4] = tested on: cells expressing oncogenic H-Ras; details: literature value, NIH probe report, cited from earlier work
[5] = Homo sapiens, DLD-1, 384-well plates
[6] = Homo sapiens, COLO 205, 384-well plates
[7] = Homo sapiens, SW480, 384-well plates
[8] = Homo sapiens, HCT-116, 384-well plates
[9] = Homo sapiens, Caco-2, 384-well plates
[10] = Homo sapiens, HT-29, 384-well plates

SMILES | HT-29/SW-480 selectivity value [1] | HT-29/HCT-116 selectivity value [2] | IC50 (DLD-1; [5]) | IC50 (COLO-205; [6]) | IC50 (SW-480; [7]) | IC50 (HCT-116; [8]) | IC50 (Caco-2; [9]) | IC50 (HT-29; [10]) | also measured
COc1cc(/C=C2/C(C)=C(CC(=O)Nc3ccc(Br)cc3)c3cc(F)ccc32)cc(OC)c1O [Compound 057, (Z)—N-(4-bromophenyl)-2-(5-fluoro-1-(4-hydroxy-3,5-dimethoxybenzylidene)-2-methyl-1H-inden-3-yl)acetamide] | 19 | 18 |  |  |  |  |  |  | 
CCCS(=O)(=O)Nc1ccc(F)c(C(=O)c2c[nH]c3ncc(-c4ccc(Cl)cc4)cc23)c1F [Vemurafenib] |  |  | 5.62 µM | 0.151 µM | 6.86 µM | 5.99 µM | 5.2 µM | 5.1 µM | 
O=C1Nc2ccc(I)cc2/C1=C/c1cc(Br)c(O)c(Br)c1 [GW5074] |  |  |  |  |  |  |  |  | IC50 (DLD-1; 384-well plates): 7.75 µM; IC50 (COLO-205; 384-well plates): 7.1 µM; selectivity with regard to Ras activation [3]: did not show selectivity for cell lines expressing activated Ras; IC50 (SW-480; 384-well plates): 8.07 µM; IC50 (HCT-116; 384-well plates): 15.8 µM; IC50 (Caco-2; 384-well plates): > 20 µM; IC50 (HT-29; 384-well plates): 19.1 µM
COc1cc(/C=C2/C(C)=C(CC(=O)Nc3ccc(F)cc3)c3cc(F)ccc32)cc(OC)c1O [Compound 054, (Z)-2-(5-fluoro-1-(4-hydroxy-3,5-dimethoxybenzylidene)-2-methyl-1H-inden-3-yl)-N-(4-fluorophenyl)acetamide] | 16 | 14 |  |  |  |  |  |  | 
COc1cc(/C=C2/C(C)=C(CC(=O)Nc3cccc(Br)c3)c3cc(F)ccc32)cc(OC)c1O [Compound 058, (Z)—N-(3-bromophenyl)-2-(5-fluoro-1-(4-hydroxy-3,5-dimethoxybenzylidene)-2-methyl-1H-inden-3-yl)acetamide] | 16 | 13 |  |  |  |  |  |  | 
COc1cc(/C=C2/C(C)=C(CC(=O)Nc3ccc(Cl)cc3)c3cc(F)ccc32)cc(OC)c1O [Compound 055, (Z)—N-(4-chlorophenyl)-2-(5-fluoro-1-(4-hydroxy-3,5-dimethoxybenzylidene)-2-methyl-1H-inden-3-yl)acetamide] | 13 | 11 |  |  |  |  |  |  | 
Cc1onc(C(=O)N2CCN(C(c3ccc(Cl)cc3)c3ccc(Cl)cc3)CC2)c1[N+](=O)[O-] [ML210] |  |  |  |  |  |  |  |  | selectivity versus cells lacking oncogenic Ras [4]: 4 fold; IC50 ([4]; read-out: IC50, growth of cells expressing mutant Ras): 0.071 µM
OCCn1cc(-c2ccc3c(c2)CC/C3=N\O)c(-c2ccncc2)n1 [GDC0879] |  |  | 7.64 µM | 0.0758 µM | > 20 µM | 8.14 µM | > 20 µM | ≥ 23.6 µM | 
COc1cc(/C=C2/C(C)=C(CC(=O)Nc3ccc(Cl)c(Cl)c3)c3cc(F)ccc32)cc(OC)c1O [Compound 056, (Z)—N-(3,4-dichlorophenyl)-2-(5-fluoro-1-(4-hydroxy-3,5-dimethoxybenzylidene)-2-methyl-1H-inden-3-yl)acetamide] | 5 | 5 |  |  |  |  |  |  | 
Cn1cnc2c(F)c(Nc3ccc(Br)cc3Cl)c(C(=O)NOCCO)cc21 [Selumetinib] |  |  | ≥ 20.4 µM | 0.0046 µM | > 20 µM | 4.11 µM | > 20 µM | 0.854 µM | 
